Patent US11939324B2, “Compounds for the treatment of epilepsy, neurodegenerative disorders and other CNS disorders” (reMYND N.V., priority 2017, dated 2024)
≈ marks a conversion by molar mass, not a printed value.

Experiments:
[1] = test system: M17-TAU P301L cells; test: TAU-induced toxicity: LDH leakage of retinoic acid incubated M17-TAU P301L cells; format: cell-based, human; settings: for EC50: Homo sapiens, reduction of LDH activity of retinoic acid incubated M17-TAU P301L cells, read-out: EC50 (μg/ml) TAU-induced toxicity
Text: A TAU expression plasmid was constructed by sub-cloning the cDNA of human TAU-P301L (encoding for TAU with proline 301 substituted by a leucine residue) into mammalian expression vector pcDNA3.1 resulting in plasmid pcDNA3.1-TAU P301L. Plasmids pcDNA3.1 and pcDNA3.1-TAU P301L were transfected to human neuroblastoma cells ([…]; ATCC No. CRL-2267) and independent clonal lines with the plasmids stably integrated into the genome were selected. […] Expression of the TAU P301L genes in the cell lines was confirmed by Western analysis.
In degenerated or dead cells lactate dehydrogenase (LDH) leaks out of the cells into the extracellular environment due to a loss of plasma-membrane integrity. This principle was used to determine cytotoxicity by quantifying the level of leaked LDH into the growth medium relative to the sum of total LDH activity from living cells and dead cells.
The detailed method for determining cytotoxicity was as follows: From appropriate precultures of M17-3.1 and M17-TAU(P301L) cells were seeded at 2500 cells/cm2 in Optimem Reduced Serum without phenol red (Gibco, Cat. 31985-047) supplemented with 1% fetal calf serum, 1 mM sodium pyruvate, 1× non-essential amino acids, 500 μg/ml G418 0.5× antibiotic/antimycotic. After 3 hours of incubation at 37° C./5% CO2 1 volume of Optimem Reduced Serum (same as described above; except without fetal calf serum) supplemented with 2.5 μM all-trans retinoic acid (ATRA) was added. The cells were further incubated for 7 days. Subsequently, LDH activity was determined using Promega Cytotox 96 Non-Radioactive cytotoxicity assay, (Cat. G1780) according the supplier's instructions.
The M17-TAU P301L cell line made it possible to assess the ability of novel compounds to counteract TAU cytotoxicity. […] These measurements were used to calculate EC50 values.
Exemplary compounds of the present invention are shown in Table 1, with their chemical structure and their EC50 value (expressed in μg/ml) as determined from example 12 in the TAU-induced toxicity experiment.

[2] = test system: M17-TAU P301L cells; test: Cytosolic calcium (Fura-2) in M17-TAU P301L cell model of calcium dyshomeostasis; format: cell-based; settings: Homo sapiens, Fura-2 340/380 nm ratio, read-out: EC50 value of lowering cytosolic Ca^2+
Description: Cystosic calcium was measured by loading the cells with a medium containing Fura-2 AM (Sigma-Aldrich), a cell permeable fluorescent probe for Ca^2+. Fura-2-AM was dissolved in DMSO plus 20% Pluronic Acid (F-127) (Invitrogen) in a 1:1 ratio and diluted in medium to a final concentration of 0.5 μM. To this loading medium probenecid (Sigma-Aldrich) was added to a final concentration of 2.5 mM. Then, culture medium was replaced by loading medium and after incubation for 1 hour at 37° C. cells were washed twice and replaced with HBSS (Gibco) supplemented with 0.2% FBS and 0.02M HEPES. Next, changes in cytosolic calcium were measured using a FlexStation 3 microplate reader (Molecular Devices) and quantified ratiometric, by calculating changes in the amount of cytosolic Ca^2+ bound Fura-2 (fluorescence intensity at 340 nm) relative to the amount of Ca^2+ unbound Fura-2 (fluorescence intensity at 380 nm). Data was processed in SoftMax Pro 5.4.6 software (Molecular Devices).
In addition compounds were tested to lower the elevated cytosolic calcium levels. In the presence of the compounds these cytosolic calcium levels were decreased.
Compounds were tested to lower the elevated cytosolic Ca^2+ levels in the cell model of calcium dyshomeostasis (FIG. 1B) as described in example 10.
Exemplary compounds of the present invention are shown in Table 2, with their chemical structure and their EC50 value of lowering cytosolic Ca^2+ (expressed in μg/ml).

[3] = test system: VGCC; test: Ex-vivo inhibition of VGCC activity: KCl-induced Ca2+ influx in primary neurons (Fura2); format: cell-based; settings: 1.5 μm compound, 45 mM KCl, primary neurons from mouse embryos, FIG. 5, p<0.0001
Description: Compound 6 was tested for its ability to inhibit VGCC activity in primary neurons. Neurons from mouse embryos were harvested and cultured using standard methods (such as used in Schlager et al., 2014. Cell reports, 8(5), pp. 1248-56). To stimulate VGCC activity, neurons were depolarized using 45 mM KCl and incubated with vehicle or compound at a concentration of 1.5 μm. Calcium influx was measured using fluorescent cytosolic Ca^2+ detection reagent Fura2.
Changes in cytosolic Ca^2+ concentrations were measured after loading the cells with Fura-2 AM (Sigma-Aldrich), a cell permeable fluorescent probe for Ca^2+. Briefly, Fura-2-AM was dissolved in DMSO plus 20% Pluronic Acid (F-127) (Invitrogen) in a 1:1 ratio and diluted in medium to a final concentration of 0.5 μM. […] Next, changes in cytosolic calcium were measured using a FlexStation 3 microplate reader (Molecular Devices) and quantified ratiometric, by calculating changes in the amount of cytosolic Ca^2+ bound Fura-2 (fluorescence intensity at 340 nm) relative to the amount of Ca^2+ unbound Fura-2 (fluorescence intensity at 380 nm). […]
Compounds were tested at […] for their ability to inhibit Ca^2+ influx in primary neurons (FIG. 5) as described in Example 14. […] The percentage (%) inhibition of Ca^2+ influx relative to vehicle treated neurons was calculated.

[4] = test system: TAU phosphorylation; test: In vivo inhibition of TAU phosphorylation in brain of APP*PS1 mice (Western analysis); settings: 20 mg/kg subcutaneously daily for 2 weeks, 5 month old APP*PS1 mice, versus vehicle, FIG. 6
Text: FIG. 6 represents graphs plotting quantifications of pathologically phosphorylated TAU species determined by Western blots of brain extracts from transgenic APP mice treated with vehicle or with exemplary Compound 6. The graphs depict the mean normalized TAU signals±SEM. ** indicate p<0.01 relative to vehicle treated animals. The TAU signals were obtained by using antibodies directed against: • (A) AT8 p-TAU, indicates the antibody recognising p-TAU phosphorylated on serine 202 and threonine 205 • (B) AD2 p-TAU, indicates the antibody recognising p-TAU phosphorylated on serines 396 and 404 • (C) phosphorylated TAU on T231 • (D) phosphorylated TAU on S262.
Transgenic human 5 month old APP*PS1 mice (The Journal of Neuroscience, Sep. 1, 2000, 20(17):6452-6458) were treated daily subcutaneously with 20 mg/kg Compound 6 for 2 weeks.
At the end of the treatment period, mice were sacrificed and the corresponding brains were used for biochemical analysis.

[5] = test system: mouse brain slices; test: Afterhyperpolarization of single action potentials in mouse brain slices; format: cell-based; settings: versus vehicle, FIG. 9, p<0.05
Description: FIG. 9 represents a graph plotting the afterhyperpolarization (AHP) amplitude of single action potentials by somatic current clamp recordings using mouse brain slices incubated with vehicle or Compound 6. * indicates p<0.05.
Somatic or dendritic (>200 μm from the soma) current-clamp recordings were performed at RT (24 to 28° C.) and slices were continuously perfused with carboxygenated standard aCSF, supplemented with control or test article REM0043039 at 2 μM. For whole-cell recordings, patch pipettes were filled with a solution containing (in mM) 140 K-gluconate, 5 NaCl, 2 MgCl2, 10 HEPES, 0.5 EGTA, 2 MgATP, 0.4 NaGTP, osmolarity 305, pH adjusted to 7.25 with KOH. The soma or dendrite of large CA1 pyramidal neurons were identified and patch-clamped after visual approach of the recording pipette using a combination of infrared light and differential interference contrast (DIC) optics. […] Recordings were terminated when the series resistances exceeded 40 MO. Signals were digitized and low-pass filtered at 10 kHz. The signal was amplified with an Axopatch 200B amplifier, digitized by a Digidata 155 interface and sampled with Clampex 10 (Molecular Devices, CA). […]
Action potentials (AP) after electrical stimulation of mouse brain slices were analysed (FIG. 9). […]

[6] = test system: primary rat hippocampal neurons; test: Ex-vivo inhibition of oligomeric amyloid beta (ADDL) toxicity in primary neurons; format: cell-based; settings: 100 ng/mL, 1000 nM ADDL, 24 h, FIG. 4
Description: An exemplary compound of this invention was tested for its ability to inhibit toxicity elicited by oligomeric amyloid beta (Aβo). Neurons from rat embryos were harvested and cultured using standard methods (such as used in Schlager et al., 2014. Cell reports, 8(5), pp. 1248-56.). Differentiated neurons were challenged with Apo and viability was quantified.
At day in-vitro 19 days after isolation primary hippocampal neurons were transfected with Marcks-GFP in order to visualize the neurons with fluorescence microscopy.
ADDL (Abeta-derived diffusible ligands) preparation (representing Aβo) was done according to Klein (Klein, 2002. Neurochemistry international, 41(5), pp. 345-52.). Abeta 1-42 was purchased from AnaSpec Inc. and dissolved in HFIP to homogenize the peptide. HFIP was then evaporated in a speedvac and Abeta film was dried at −20° C. overnight over desiccant. Abeta film was then resolubilised in 100% DMSO and further diluted (1/25) in Ham's F12 medium. […]
The solution was centrifuged at 14.000×g for 10 min at 4° C. and supernatants were transferred to fresh tubes and protein concentration determined by NanoDrop®.
At day in-vitro 21 primary rat hippocampal neurons were treated with equal volume of Blank/ADDL solution amounting to 0 and 1000 nM ADDL. […] Viability was assessed using the Live-Dead assay from Thermo Fisher Catalog number: L3224. […]

[7] = test system: Transgenic human APP mice; test: Morris Water Maze cognition test in transgenic APP mice; format: in vivo; settings: 20 mg/kg subcutaneously daily for 8 weeks, versus vehicle
Description: P-value refers to the treatment of transgenic APP mice with exemplary Compound 6 versus vehicle.
Transgenic human of 4 months of age APP mice (THE JOURNAL OF BIOLOGICAL […] Vol. 274, No. 10, Issue of March 5, pp. 6483-6492, 1999) were treated subcutaneously, daily for 8 weeks with Compound 6 at 20 mg/kg. Cognition was assessed using the Morris Water Maze test. […] After the learning phase a probe test was conducted in which the platform was removed from the water bath to evaluate the spatial memory of the location of the platform.
Both indices indicate that compound treated mice have improved cognitive performance almost identical to wild type controls compared to vehicle treated mice.

[8] = test system: CA1 pyramidal neurons; test: Neuronal firing rate in brain slices from tgAPP mice (patch clamp, CA1); format: cell-based, mouse; settings: 2 μM, 1 hr perfusion, higher stimuli, FIG. 8
Description: Brain slices from wild type and tgAPP mice were incubated with DMSO or Compound 6. Neurons were stimulated with increasing currents and the frequency of action potentials (firing rate) was measured.
In tgAPP mice the frequency of action potentials at higher stimuli was higher.
Acute sagittal brain slices from WT or hAPP mice were prepared by decapitation of the mice after isoflurane anaesthesia. Brains were removed quickly and immersed during 3-4 min in ice-cold freshly prepared cutting artificial cerebrospinal fluid (cutting aCSF) containing (in mM) 214 sucrose, 2.5 KCl, 2 CaCl2, 2 MgSO4, 1.25 NaH2PO2, 26 NaHCO3 and 10 glucose and oxygenated with 95% O2/5% CO2. Sagittal 350 μm slices were generated using a vibratome (VT 1000S; Leica Microsystems) and were incubated in standard carboxygenated aCSF (in mM: 125 NaCl, 2.5 KCl, 2 CaCl2, 2 MgSO4, 1.25 NaH2PO2, 26 NaHCO3 and 10 glucose, osmolarity 305 mOsm) at 34° C. during 20 min. The incubation continued at room temperature (RT) for another hour before each slice was transferred to a submerged recording chamber and perfused continuously with carboxygenated aCSF. […]
Dendritic firing rate of CA1 cells was recorded in response to hyperpolarizing and depolarizing steps (−0.4 to +0.45 nA, steps of 0.05 nA) after a 1 hr perfusion with vehicle or compound at 2 μM. […]

EC50 [2] [ng/mL] | SMILES | EC50 [1] [µg/mL] | further results
– | COC(=O)C1=C(C)NC(C)=C(C(=O)OC(C)C)C1c1cccc2nonc12 (stereo not shown) [isradepine, reference compound] | – | toxicity (LDH leaked into the medium) of RA-incubated cells ([1]; FIG. 2, M17-TAU P301L cells with RA): toxicity is reduced
4.7 | O=C(NCCc1c[nH]c2ccc(F)cc12)c1cc(Cc2ccccc2F)on1 [Compound 7] | 0.0043 (≈ 11.3 nM) | –
1.4 | O=C(NCCc1c[nH]c2ccc(F)cc12)c1cc(Cc2ccc(F)c(F)c2)on1 [Compound 2] | 0.002 (≈ 5.01 nM) | –
7.1 | O=C(NCCc1c[nH]c2ccc(F)cc12)c1cc(Cc2cccc(F)c2F)on1 [Compound 5] | 0.0028 (≈ 7.01 nM) | –
2.4 | O=C(NCCc1c[nH]c2ccc(F)cc12)c1cc(Cc2cc(F)ccc2F)on1 [Compound 6] | 0.0034 (≈ 8.51 nM) | Ca^2+ influx upon KCl depolarization [3]: significantly reduced; TAU phosphorylation in brain extracts [4]: more effectively reduced TAU phosphorylation; afterhyperpolarization (AHP) amplitude of action potentials [5]: increased; neuronal viability after Aβo challenge [6]: strongly rescued; search path during training phase of Morris Water Maze ([7]; FIG. 7A): reduced search path; annulus crossing index score in probe test ([7]; FIG. 7B): higher annulus crossing index score; frequency of action potentials (firing rate) [8]: significantly lowered the frequency towards wild type level
2.4 | O=C(NCCc1c[nH]c2ccc(F)cc12)c1cc(Cc2cc(F)cc(F)c2)on1 [Compound 3] | 0.0021 (≈ 5.26 nM) | –
1 | O=C(NCCc1c[nH]c2ccc(F)cc12)c1cc(Cc2ccc(F)cc2F)on1 [Compound 1] | 0.002 (≈ 5.01 nM) | –
3.5 | O=C(NCCc1c[nH]c2ccc(F)cc12)c1cc(Cc2ccc(F)cc2)on1 [Compound 4] | 0.0022 (≈ 5.77 nM) | –
